{
  "source": "PubChem BioAssay AID1996",
  "data": [
    {"settings": "buffer; pH 7.4; 200.0 µM", "units": {"solubility kinetic": "µg/mL"}, "values": [
      {"smiles": "CCN(CC(=O)NCc1ccc(F)cc1)C(=O)c1cc2ccccc2o1", "solubility kinetic": 47.2},
      {"smiles": "CCN(C(=O)CSc1ccc2ccccc2n1)C1CCCCC1", "solubility kinetic": 14.6},
      {"smiles": "O=C(Nc1ccc(Cl)cc1)/C(=C1\\CCCN1)[N+](=O)[O-]", "solubility kinetic": 1},
      {"smiles": "O=C(COC(=O)CC1CC2CCC1C2)NCc1ccccc1", "note": "(stereo not given)", "solubility kinetic": "> 45.2"},
      {"smiles": "CC(CO)NCC12CC3CC(CC(C3)C1)C2.Cl", "note": "(stereo not given)", "solubility kinetic": "> 39"},
      {"smiles": "O=C(NC(=S)N1CCCC(C(F)(F)F)C1)c1ccc(F)cc1", "note": "(stereo not given)", "solubility kinetic": 37.9},
      {"smiles": "O=c1[nH]c(=S)[nH]c2scc(-c3ccc(Br)cc3)c12", "solubility kinetic": 9.1},
      {"smiles": "O=C(NCCc1ccccc1)c1cc2ccccc2oc1=O", "solubility kinetic": "< 0.6"},
      {"smiles": "Cc1nn(C)c(C)c1/C=C(/C(=O)C(C)C)n1cncn1", "solubility kinetic": "> 41"},
      {"smiles": "Cc1cccc(C(=O)OCC(=O)NCC(C)C)c1O", "solubility kinetic": 13.6},
      {"smiles": "Nc1nc(-c2cc3ccccc3o2)cs1", "solubility kinetic": 3.3},
      {"smiles": "CCOC(=O)C1CCCN(Cc2cc(=O)oc3cc(C)c(C)cc23)C1", "note": "(stereo not given)", "solubility kinetic": 23.1},
      {"smiles": "Cc1c(Cl)cccc1-n1cnc(=O)c2ccccc21", "solubility kinetic": "> 40.6"},
      {"smiles": "COC(=O)c1ccc(OCC(=O)NC2CCCCCC2)cc1", "solubility kinetic": "> 45.8"},
      {"smiles": "Cc1cc(C)c(S(=O)(=O)NCC(=O)NCc2ccccn2)c(C)c1", "solubility kinetic": "> 52.1"},
      {"smiles": "CCN=c1sc(C(=O)Nc2ccccc2)c(C)n1CC", "solubility kinetic": 43},
      {"smiles": "Cc1cc(OCC(=O)NCCc2c[nH]c3ccccc23)c2c(C)cc(=O)oc2c1", "solubility kinetic": "< 0.4"},
      {"smiles": "C=CCn1c(O)c(/C(C)=N/N2CCCCCC2)c(=O)[nH]c1=O", "solubility kinetic": "> 46"},
      {"smiles": "Cc1nccn1C[C@@H]1CCc2c(c3ccccc3n2C)C1=O", "solubility kinetic": 32.5},
      {"smiles": "O=[N+]([O-])c1ccc(CN2CCN(c3ccc(Cl)cc3)CC2)o1", "solubility kinetic": 4.7},
      {"smiles": "Fc1cccc(Cl)c1CNCc1cccnc1", "solubility kinetic": "> 37.6"},
      {"smiles": "Cc1onc(-c2ccccc2Cl)c1C(=O)N1CCN(C=O)CC1", "solubility kinetic": "> 50.1"},
      {"smiles": "COc1ccc(NC(=O)c2ccco2)c2ccccc12", "solubility kinetic": "> 40.1"},
      {"smiles": "Nc1nonc1OCCOCCOCCOc1nonc1N", "solubility kinetic": 45.7},
      {"smiles": "CCN1C(=O)CC(N2CCC(C(=O)N3CCCCCC3)CC2)C1=O", "note": "(stereo not given)", "solubility kinetic": "> 50.3"},
      {"smiles": "CC(C)(C)OC(=O)C(C)(C)Sc1nnc(N)s1", "solubility kinetic": "> 41.3"},
      {"smiles": "CSc1nc(S(=O)(=O)c2ccc(C)cc2)c(Cl)s1", "solubility kinetic": 10},
      {"smiles": "N#Cc1ccc(Cl)cc1NC(=O)CSc1cccc[n+]1[O-]", "solubility kinetic": "> 48"},
      {"smiles": "O=C(CSc1cc(Cl)ccc1Cl)NC1CCCC1", "solubility kinetic": 3.6},
      {"smiles": "Cc1cc(C(=O)Nc2ccccc2C)c2ccccc2n1", "solubility kinetic": 34.7},
      {"smiles": "O=S(=O)(c1cccc(-c2nnco2)c1)N1CCOCC1", "solubility kinetic": "> 44.3"},
      {"smiles": "COc1cc(NC(=O)c2cccc(S(=O)(=O)N3CCCCC3)c2)cc(OC)c1OC", "solubility kinetic": 7.2},
      {"smiles": "CC(=O)Nc1c(Cl)cnn(-c2ccccc2)c1=O", "solubility kinetic": "> 39.6"},
      {"smiles": "COc1ccc(CCNC(=O)/C=C/c2ccco2)cc1", "solubility kinetic": 38.9},
      {"smiles": "O=c1[nH]cc(-c2ccc(Br)cc2)n1Cc1ccccc1", "solubility kinetic": 1.6},
      {"smiles": "C=C(C)Cn1cnc2c(oc3nc4c(cc32)CCCC4)c1=O", "solubility kinetic": 2.5},
      {"smiles": "CCC1CCc2sc(C(=O)NCc3ccccn3)cc2C1", "note": "(stereo not given)", "solubility kinetic": 36.8},
      {"smiles": "CCCN(CCC)S(=O)(=O)c1cccc(-c2csc(C)n2)c1", "solubility kinetic": 8},
      {"smiles": "O=C(NCCCc1ccccc1)C1CC1", "solubility kinetic": "> 30.5"},
      {"smiles": "CC1(C)CC(NC(=O)Nc2ccc([N+](=O)[O-])cc2)CC(C)(C)N1", "solubility kinetic": "> 48.1"},
      {"smiles": "CSCC(=O)N1CCCC(CO)(CCCc2ccccc2)C1", "note": "(stereo not given)", "solubility kinetic": "> 48.2"},
      {"smiles": "O=C(CCc1ccccc1)N1CCCC1", "solubility kinetic": 29.9},
      {"smiles": "Br.CN(/N=C/c1ccncc1)C1=NCCN1", "solubility kinetic": "> 42.6"},
      {"smiles": "CCOc1ccccc1OCCC(=O)Nc1ccc2c(c1)OCO2", "solubility kinetic": "> 49.4"},
      {"smiles": "COc1cccc(C(=O)Nc2cccc3c2ccc2cccn23)c1", "solubility kinetic": 1.3},
      {"smiles": "O=C(Nc1cc2c(cc1Br)OCCO2)c1cccnc1", "solubility kinetic": "> 50.3"},
      {"smiles": "CC(=O)Nc1cccc2c1C(=O)N(c1ccccc1OC(C)=O)C2=O", "solubility kinetic": "> 50.7"},
      {"smiles": "CCCCCC1C/C(=N\\O)C=C(C)C1C(=O)OC", "note": "(stereo not given)", "solubility kinetic": "> 38"},
      {"smiles": "Cc1cc(C)cc(NC(=O)c2cccnc2)c1", "solubility kinetic": "> 33.9"},
      {"smiles": "CCCc1cc(=O)[nH]c(Nc2ccc(Cl)cc2)n1", "solubility kinetic": 4.4},
      {"smiles": "CC(=O)Oc1ccc2c(=O)oc(-c3ccccc3C)nc2c1", "solubility kinetic": 8.4},
      {"smiles": "C=CCSc1ncc(CO)n1Cc1ccccc1", "solubility kinetic": 37.9},
      {"smiles": "Cn1cc(C(=O)C(=O)NCCc2ccccc2)c2ccccc21", "solubility kinetic": 0.6},
      {"smiles": "O=C(Nc1nc2ccc(Cl)cc2s1)C1CC1", "solubility kinetic": 4.8},
      {"smiles": "CCOc1ccc(NC(=O)Nc2nc(SCC)ns2)cc1", "solubility kinetic": 0.8},
      {"smiles": "CC(C)=CCN1CCN(CC#Cc2ccccc2)CC1CCO", "note": "(stereo not given)", "solubility kinetic": 37.9},
      {"smiles": "O=C(O/N=C1\\CCCc2ccccc21)C1CC1", "solubility kinetic": 28.3},
      {"smiles": "CCc1nnc(NC(=O)CSc2nnc3nc(C)cc(C)n23)s1", "solubility kinetic": "> 52.4"},
      {"smiles": "COc1cccc(/C=C/C(=O)OCC(=O)NC2CC2)c1", "solubility kinetic": "> 41.3"},
      {"smiles": "O=C(O)[C@H](Cc1c[nH]c2ccccc12)Nc1ncccc1[N+](=O)[O-]", "solubility kinetic": "> 48.9"}
    ]}
  ]
}
